# ChEMBL document CHEMBL5143608, “Peptide-based long-acting co-agonists of GLP-1 and cholecystokinin 1 receptors as novel anti-diabesity agents” (Eur J Med Chem, 2022)
# Calls of active or inactive are those of the source. The rule behind the calls is not given here. *1 amine or outer side, *2 acyl side, *3 side chain or, on linkers, in order; H or OH if unused. Where a SMILES comes first, the peptide text is derived from it. [ ]: non-standard residue; d: D form. The star is where a group is joined. Phe(4-CH2SO3H) = N[C@@H](Cc1ccc(CS(=O)(=O)O)cc1)C(=O)O; C18 diacid = O=C(O)CCCCCCCCCCCCCCCCC(=O)*; γGlu = O=C(O)[C@H](CCC(=O)[*:2])N[*:1]; NMeF = CN[C@@H](Cc1ccccc1)C(=O)O; dNMeD = CN[C@H](CC(=O)O)C(=O)O; Nle = CCCC[C@H](N)C(=O)O; AEEA = NCCOCCOCC(=O)O
# Assays:
# [1] = molecular target: T1, Cholecystokinin receptor type A (Homo sapiens, UniProt P32238); assay: Agonist activity at human CCK1R expressed in HEK293 cells assessed as ERK1/2 phosphorylation incubated for 5 mins by AlphaScreen assay; assay type: functional, cell-based
# T1 sequence (P32238 whole entry): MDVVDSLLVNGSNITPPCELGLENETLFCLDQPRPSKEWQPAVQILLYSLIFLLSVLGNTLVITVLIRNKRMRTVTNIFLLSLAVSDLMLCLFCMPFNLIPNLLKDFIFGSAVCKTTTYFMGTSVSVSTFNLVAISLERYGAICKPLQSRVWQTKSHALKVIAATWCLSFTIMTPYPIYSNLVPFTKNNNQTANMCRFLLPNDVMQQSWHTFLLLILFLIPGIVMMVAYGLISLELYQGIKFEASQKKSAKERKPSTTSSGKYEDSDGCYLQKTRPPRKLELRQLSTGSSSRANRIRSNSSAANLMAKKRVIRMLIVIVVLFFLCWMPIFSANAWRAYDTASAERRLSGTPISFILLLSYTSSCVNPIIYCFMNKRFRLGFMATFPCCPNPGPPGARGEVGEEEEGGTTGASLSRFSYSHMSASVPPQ
# [2] = molecular target: T2, Gastrin/cholecystokinin type B receptor (Homo sapiens, UniProt P32239); assay: Agonist activity at human CCK2R expressed in HEK293 cells assessed as ERK1/2 phosphorylation incubated for 5 mins by AlphaScreen assay; assay type: functional, cell-based
# T2 sequence (P32239 whole entry): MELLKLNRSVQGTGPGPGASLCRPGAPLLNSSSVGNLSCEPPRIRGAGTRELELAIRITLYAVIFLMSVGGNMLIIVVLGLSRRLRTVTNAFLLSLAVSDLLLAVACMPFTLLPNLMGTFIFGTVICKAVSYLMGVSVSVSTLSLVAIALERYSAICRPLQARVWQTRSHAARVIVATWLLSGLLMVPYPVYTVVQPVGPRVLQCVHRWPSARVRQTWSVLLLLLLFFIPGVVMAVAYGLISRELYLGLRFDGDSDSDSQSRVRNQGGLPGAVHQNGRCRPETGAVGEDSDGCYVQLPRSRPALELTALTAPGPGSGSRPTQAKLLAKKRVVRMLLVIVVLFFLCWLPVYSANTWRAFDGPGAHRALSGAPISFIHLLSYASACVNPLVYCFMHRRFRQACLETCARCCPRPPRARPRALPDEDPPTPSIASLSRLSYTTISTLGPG
# Mus musculus [3] = assay: Anti-diabesity activity against high fat diet-induced DIO C57BL/6 mouse model assessed as decrease in body weight at 25 nmol/kg, sc administered for 2 weeks; assay type: functional; settings: C57BL/6, 336 h, time 14 day
# Mus musculus [4] = assay: Anti-diabesity activity against high fat diet-induced DIO C57BL/6 mouse model assessed as reduction in food intake at 25 nmol/kg, sc administered for 2 weeks; assay type: functional, organism-based; settings: time 14.0 day
# Mus musculus [5] = assay: Anti-diabesity activity against high fat diet-induced DIO C57BL/6 mouse model assessed as reduction in fat mass accumulation at 25 nmol/kg, sc administered for 2 weeks and measured on day 15 by NMR analysis; assay type: functional, organism-based; settings: time 15.0 day
# Mus musculus [6] = assay: Anti-diabesity activity against high fat diet-induced DIO C57BL/6 mouse model assessed as reduction in fasted blood glucose level at 25 nmol/kg, sc administered for 2 weeks and measured on day 15 by glucometer analysis; assay type: functional, organism-based; settings: time 15.0 day
# Mus musculus [7] = assay: Hypoglycemic activity in db/db mouse assessed as improvement in glucose tolerance at 25 nmol/kg, ip administered 30 min before oral glucose administration and measured upto 120 mins by OGTT; assay type: functional, organism-based
# Mus musculus [8] = assay: Hypoglycemic activity in db/db mouse assessed as reduction in glucose excursion at 25 nmol/kg, ip administered 30 min before oral glucose administration and measured upto 120 mins by OGTT; assay type: functional, organism-based
# Mus musculus [9] = assay: Insulinotropic activity in db/db mouse assessed as elevation of plasma insulin level at 25 nmol/kg, ip administered 30 min before oral glucose administration and measured upto 60 mins by ELISA; assay type: functional, organism-based; settings: time <= 90.0 min
# Mus musculus [10] = assay: Anti-diabesity activity in DIO C57BL/6 mouse assessed as reduction in body weight at 10 nmol/kg, sc administered every 2 days for 10 days; assay type: functional; settings: C57BL/6, 240 h, time 10 day
# Mus musculus [11] = assay: Anti-diabesity activity in DIO C57BL/6 mouse assessed as reduction in body weight at 25 nmol/kg, sc administered every 2 days for 10 days; assay type: functional; settings: C57BL/6, 240 h, time 10 day
# Mus musculus [12] = assay: Anti-diabesity activity in DIO C57BL/6 mouse assessed as improvement in insulin sensitivity at 25 nmol/kg, sc administered every 2 days for 10 days by insulin tolerance test; assay type: functional, organism-based; settings: time 10.0 day
# Mus musculus [13] = assay: Anti-diabesity activity against DIO C57BL/6 mouse assessed as reduction in body weight at 25 nmol/kg, sc administered every 2 days for 3 weeks; assay type: functional; settings: C57BL/6, 504 h, time 21 day
# Mus musculus [14] = assay: Anti-diabesity activity against DIO C57BL/6 mouse assessed as reduction in cumulative food intake at 25 nmol/kg, sc administered every 2 days for 3 weeks; assay type: functional, organism-based; settings: time 21.0 day
# Mus musculus [15] = assay: Anti-diabesity activity against DIO C57BL/6 mouse assessed as decrease in fat mass at 25 nmol/kg, sc administered every 2 days for 3 weeks; assay type: functional, organism-based; settings: time 21.0 day
# Mus musculus [16] = assay: Anti-diabesity activity against DIO C57BL/6 mouse assessed as reduction in fasted blood glucose level at 25 nmol/kg, sc administered every 2 days for 3 weeks; assay type: functional, organism-based; settings: time 21.0 day
# Mus musculus [17] = assay: Anti-diabesity activity against DIO C57BL/6 mouse assessed as improvement in glucose tolerance at 25 nmol/kg, sc administered every 2 days for 3 weeks by OGTT; assay type: functional, organism-based; settings: time 21.0 day
# Mus musculus [18] = assay: Anti-diabesity activity against DIO C57BL/6 mouse assessed as reduction in cholesterol level in serum at 25 nmol/kg, sc administered every 2 days for 3 weeks; assay type: functional, organism-based; settings: time 21.0 day
# Mus musculus [19] = assay: Anti-diabesity activity against DIO C57BL/6 mouse assessed as reduction in triglycerides level in serum at 25 nmol/kg, sc administered every 2 days for 3 weeks; assay type: functional, organism-based; settings: time 21.0 day
# Mus musculus [20] = assay: Anti-diabesity activity in DIO C57BL/6 mouse assessed as reduction in body weight at 100 nmol/kg, sc administered every 2 days for 10 days; assay type: functional; settings: C57BL/6, 240 h, time 10 day
# Mus musculus [21] = assay: Anti-diabesity activity against high fat diet-induced DIO C57BL/6 mouse model assessed as improvement in glucose tolerance level at 25 nmol/kg, sc administered for 2 weeks and measured on day 16 by oral glucose tolerance test; assay type: functional, organism-based; settings: time 16.0 day
# Mus musculus [22] = assay: Anorectic activity in ICR mouse assessed as decrease in food intake at 25 nmol/kg, ip and measured after 24 hrs; assay type: functional, organism-based
# BRIN-BD11 = assay: Insulinotropic activity in rat BRIN-BD11 cells assessed as increase in insulin secretion incubated for 20 mins by radioimmunoassay; assay type: functional, cell-based; settings: DDE = dose-dependent effect
smiles,measurement,setting,value
CCCC[C@H](NC(=O)[C@H](Cc1ccc(CS(=O)(=O)O)cc1)NC(=O)[C@H](CC(=O)O)NC(=O)COCCOCCNC(=O)COCCOCCNC(=O)CC[C@H](NC(=O)CCCCCCCCCCCCCCCCC(=O)O)C(=O)O)C(=O)NCC(=O)N[C@@H](Cc1c[nH]c2ccccc12)C(=O)N[C@@H](CCCC)C(=O)N(C)[C@H](CC(=O)O)C(=O)N(C)[C@@H](Cc1ccccc1)C(N)=O ({C18 diacid-γGlu-AEEA-AEEA}-D[Phe(4-CH2SO3H)][Nle]GW[Nle][dNMeD][NMeF]-NH2),EC50,[1],0.21 nM
same,EC50,[2],> 100 nM
same,inhibition in vivo at 0.025 µmol/kg,Mus musculus [3],7.1%
same,Activity,Mus musculus [4],Active
same,Activity,Mus musculus [5],Active
same,Activity,Mus musculus [6],Active
same,Activity,Mus musculus [7],Active
same,Activity,Mus musculus [8],Active
same,Activity,Mus musculus [9],Active
same,inhibition in vivo at 0.01 µmol/kg,Mus musculus [10],3.9%
same,inhibition in vivo at 0.025 µmol/kg,Mus musculus [11],6.1%
same,Activity,Mus musculus [12],Active
same,inhibition in vivo at 0.025 µmol/kg,Mus musculus [13],9.8%
same,Activity,Mus musculus [14],Active
same,Activity,Mus musculus [15],Active
same,Activity,Mus musculus [16],Active
same,Activity,Mus musculus [17],Active
same,Activity,Mus musculus [18],Active
same,Activity,Mus musculus [19],Active
same,inhibition in vivo at 0.1 µmol/kg,Mus musculus [20],10%
same,Activity,Mus musculus [21],Active
same,Activity,Mus musculus [22],Active
same,Activity,BRIN-BD11,Dde
